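Grown in 96-well plates, cells were treated for 48 hours with each compound at five concentrations. Insufficient inhibition: endpoint recorded as highest concentration tested. The concentration for 50% growth inhibition is given as GI50. TGI marks complete inhibition of growth.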
Columns and labels:
Assay in all cases: NCI tumour cell line growth inhibition, 48 h
[1] = test system: HCT-116 colon
[2] = test system: SK-OV-3 ovarian
[3] = test system: MDA-MB-231 breast
[4] = test system: MDA-MB-468 breast
[5] = test system: COLO 205 colon
[6] = test system: OVCAR-5 ovarian
[7] = test system: IGROV1 ovarian
[8] = test system: MOLT-4 leukemia
[9] = test system: A498 renal
[10] = test system: BT-549 breast
[11] = test system: SN12C renal
[12] = test system: NCI-H460 lung
[13] = test system: T-47D breast
[14] = test system: OVCAR-8 ovarian
[15] = test system: NCI-H522 lung
[16] = test system: TK-10 renal
[17] = test system: SF-295 CNS
[18] = test system: HCC-2998 colon
[19] = test system: MDA-MB-435
[20] = test system: SR leukemia
[21] = test system: SK-MEL-5 melanoma
[22] = test system: DU-145 prostate
[23] = test system: SW-620 colon
[24] = test system: HCT-15 colon
[25] = test system: HS 578T breast
[26] = test system: K-562 leukemia
[27] = test system: KM12 colon
[28] = test system: SK-MEL-28 melanoma
[29] = test system: RXF 393 renal
[30] = test system: CAKI-1 renal
[31] = test system: NCI-H226 lung
[32] = test system: SNB-19 CNS
[33] = test system: OVCAR-4 ovarian
[34] = test system: PC-3 prostate
[35] = test system: UACC-62 melanoma
[36] = test system: EKVX NSCLC
[37] = test system: MCF7 breast
[38] = test system: UO-31 renal
[39] = test system: UACC-257 melanoma
[40] = test system: HL-60(TB) leukemia
[41] = test system: HT29 colon
[42] = test system: MALME-3M melanoma
[43] = test system: HOP-62 NSCLC
[44] = test system: A549 NSCLC
[45] = test system: NCI-H23 lung
[46] = test system: SF-539 CNS
[47] = test system: M14 melanoma
[48] = test system: U251 CNS
[49] = test system: ACHN renal
[50] = test system: 786-0 renal
[51] = test system: SF-268 CNS
[52] = test system: HOP-92 NSCLC
[53] = test system: OVCAR-3 ovarian
[54] = test system: SK-MEL-2 melanoma

`Cc1cc(=O)oc2cc(OCCOc3ccc(/C=C/C(=O)Nc4ccccc4N)cc3)ccc12` gave a GI50 [1] of 3.31 µM, a TGI [1] greater than 100 µM and a GI50 [2] of 8.39 µM. It also gave a TGI [2] greater than 100 µM, a GI50 [3] of 2550 nM and a TGI [3] of 35.1 µM. It also gave a GI50 [4] of 3.41 µM, a TGI [4] of 96.2 µM and a GI50 [5] of 3.68 µM. It also gave a TGI [5] greater than 100 µM, a GI50 [6] of 6.43 µM and a TGI [6] greater than 100 µM. It also gave a GI50 [7] of 2080 nM, a TGI [7] greater than 100 µM and a GI50 [8] of 294 nM. For the same molecule, the TGI [8] was 1340 nM, the GI50 [9] was 2740 nM and the TGI [9] was 9.36 µM. For the same molecule, the GI50 [10] was 1200 nM, the TGI [10] was 4.93 µM and the GI50 [11] was 2770 nM. The TGI [11] was greater than 100 µM, the GI50 [12] was 2740 nM and the TGI [12] was greater than 100 µM. It also gave a GI50 [13] of 1590 nM, a TGI [13] greater than 100 µM and a GI50 [14] of 3.99 µM. The TGI [14] was greater than 100 µM, the GI50 [15] was 4 µM and the TGI [15] was greater than 100 µM. For the same molecule, the GI50 [16] was 9.25 µM, the TGI [16] was greater than 100 µM and the GI50 [17] was 4.8 µM. The TGI [17] was greater than 100 µM, the GI50 [18] was 5.47 µM and the TGI [18] was greater than 100 µM. It also gave a GI50 [19] of 6.69 µM, a TGI [19] greater than 100 µM and a GI50 [20] of 5.66 µM. It also gave a TGI [20] greater than 100 µM, a GI50 [21] of 1480 nM and a TGI [21] of 3.2 µM. The GI50 [22] was 6.8 µM, the TGI [22] was greater than 100 µM and the GI50 [23] was 4.16 µM. For the same molecule, the TGI [23] was greater than 100 µM, the GI50 [24] was 3.17 µM and the TGI [24] was greater than 100 µM. For the same molecule, the GI50 [25] was greater than 100 µM, the TGI [25] was greater than 100 µM and the GI50 [26] was 3.01 µM. It also gave a TGI [26] greater than 100 µM, a GI50 [27] of 5.12 µM and a TGI [27] greater than 100 µM. It also gave a GI50 [28] of 5.2 µM, a TGI [28] greater than 100 µM and a GI50 [29] of 3.64 µM. For the same molecule, the TGI [29] was greater than 100 µM, the GI50 [30] was 4.58 µM and the TGI [30] was greater than 100 µM. The GI50 [31] was 4.09 µM, the TGI [31] was greater than 100 µM and the GI50 [32] was 4.42 µM. For the same molecule, the TGI [32] was greater than 100 µM, the GI50 [33] was 4.86 µM and the TGI [33] was greater than 100 µM. For the same molecule, the GI50 [34] was 3.1 µM, the TGI [34] was greater than 100 µM and the GI50 [35] was 3.74 µM. It also gave a TGI [35] greater than 100 µM, a GI50 [36] of 6.5 µM and a TGI [36] greater than 100 µM. It also gave a GI50 [37] of 1270 nM, a TGI [37] greater than 100 µM and a GI50 [38] of 1310 nM. The TGI [38] was greater than 100 µM, the GI50 [39] was 2870 nM and the TGI [39] was greater than 100 µM. It also gave a GI50 [40] of 369 nM, a TGI [40] of 2620 nM and a GI50 [41] of 4.45 µM. It also gave a TGI [41] greater than 100 µM, a GI50 [42] of 3.89 µM and a TGI [42] greater than 100 µM. The GI50 [43] was 8.17 µM, the TGI [43] was greater than 100 µM and the GI50 [44] was 4.27 µM. For the same molecule, the TGI [44] was greater than 100 µM, the GI50 [45] was 6.05 µM and the TGI [45] was greater than 100 µM. It also gave a GI50 [46] of 2580 nM, a TGI [46] greater than 100 µM and a GI50 [47] of 9.87 µM. The TGI [47] was greater than 100 µM, the GI50 [48] was 5.59 µM and the TGI [48] was greater than 100 µM. It also gave a GI50 [49] of 5.52 µM, a TGI [49] greater than 100 µM and a GI50 [50] of 3.75 µM. The TGI [50] was greater than 100 µM, the GI50 [51] was 4.43 µM and the TGI [51] was greater than 100 µM. It also gave a GI50 [52] of 3.45 µM, a TGI [52] greater than 100 µM and a GI50 [53] of 4.19 µM. For the same molecule, the TGI [53] was greater than 100 µM, the GI50 [54] was 5.81 µM and the TGI [54] was greater than 100 µM.
